Results on one compound are retold here after PMC6099630, “Synthesis, Antiviral and Cytotoxic Activity of Novel Terpenyl Hybrid Molecules Prepared by Click Chemistry” (Molecules : A Journal of Synthetic Chemistry and Natural …, 2018).

Series [1] can be described thus: in vitro. The format is cell-based. The note with it: African green monkey. On the procedure: (§1) The synthetic compounds and acyclovir (ACV, Sigma) were dissolved in dimethylsulfoxide (DMSO) and diluted with Eagle’s minimal essential medium supplemented with 1.5% inactivated fetal bovine serum (FBS) and 50 μg/mL gentamicin (MEM 1.5%).
(§2) Vero and Hep-2 cells were grown in MEM supplemented with 10% inactivated FBS and 50 µg/mL gentamicin and maintained in MEM 1.5%. Raw 264.7 cells were grown in Dulbecco’s Modified Eagle’s Medium (DMEM) supplemented with 10% FBS and 50 µg/mL gentamicin and maintained in DMEM 1.5%. C6 cells were grown in DMEM-F12 supplemented with 2.5% FBS50 µg/mL gentamicin and 15% horse serum (HS) and maintained in DMEM-F12 supplemented with 1.5% FBS. HSV-1 KOS, thymidine kinase-deficient (TK−) B2006 and Field strains of HSV-1 were used and propagated at low multiplicity of infection (m.o.i.) on Vero cells.
Cell viability was determined using the tetrazolium salt MTT (3-(4,5-dimethylthiazol-2-yl)-2,5-diphenyltetrazolium bromide, Sigma) according to the manufacturer’s instructions. […] The absorbance was measured on a MPR-A 4i microplate reader (Eurogenetics, Tipperary, Ireland) using a test wavelength of 570 nm and a reference wavelength of 630 nm. Results were expressed as a percentage of absorbance of treated cell cultures with respect to untreated ones. […]

Series [2] deals with HSV-1 KOS strain. The experiment in a line: Cytopathic effect assay, HSV-1 KOS. The format is cell-based, herpes simplex virus type 1 (HSV-1). The conditions noted are these: Human alphaherpesvirus 1; inhibition of 50% viral cytopathic effect; m.o.i. 0.1 PFU/cell, 48 h p.i.; nonlinear regression. On the procedure:
as §1, §2
(§3) Cells grown in 96-well plates were infected or not with HSV-1 (KOS, Field and B2006 strains) at a m.o.i. of 0.1 PFU/cell. After 1-h adsorption at 37 °C, the inoculum was removed and medium containing or not the compounds was added, in triplicate. […] Then, cells were fixed with 10% formaldehyde for 15 min at room temperature, washed once with distilled water and stained with 0.05% crystal violet in 10% ethanol over 30 min. […] The absorbance of each well was measured on an Eurogenetics MPR-A 4i microplate reader using a test wave-length of 590 nm.
Background: Cytopathic effects are the visible damage that an infection or toxin causes in cultured cells.

Series [3] deals with HSV-1 Field strain. The series is described as follows: Cytopathic effect assay, HSV-1 Field. The format is cell-based, herpes simplex virus type 1 (HSV-1). The note with it: Human alphaherpesvirus 1; inhibition of 50% viral cytopathic effect; m.o.i. 0.1 PFU/cell, 48 h p.i.; nonlinear regression. On the procedure:
as §1, §2, §3

Series [4] concerns HSV-1 B2006 strain (thymidine kinase-deficient, TK−). The experiment in a line: microbe, parasite or virus in culture. The format is cell-based, herpes simplex virus type 1 (HSV-1). The note with it: Human alphaherpesvirus 1, 48 h, read-out: EC50 B2006. On the procedure: as §1, §2, §3

The compound `Nc1nc2c(ncn2COCCO)c(=O)[nH]1` [ACV, Acyclovir] returned a CC50 at 48 h in series [1] of more than 1000 µM. Also, the EC50 in series [2] was 8.2 ± 1 µM; in series [3] it was 73 ± 1 µM; in series [4], 50 ± 2 µM.

As usually defined, the CC50 is the concentration giving 50% cytotoxicity. Usually EC50 stands for the concentration giving half of the maximal effect.
